The text below walks through data of patent publication US8048862B2, “Macrocyclic inhibitors of hepatitis C virus replication” (priority 2008, dated 2011).

The structures appear in SMILES notation. Read-outs that look alike come from different tables or passages of the source.

The target in one experiment is NS3/NS4 complexes (Hepatitis C virus genotype 1a, UniProt P27958). Put plainly: NS3/NS4 inhibition activity (IC50). Format: biochemical. Put shortly: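 NS3/NS4 complexes were formed and compound inhibitory concentrations determined at ambient temperature (23 °C). The buffer contained 50 mM Tris-HCl pH 7.5, 15% glycerol, 0.6 mM LDAO, 25 μM NS4A peptide and 10 mM DTT.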
Sequence of NS3/NS4 complexes (P27958 1027-1657): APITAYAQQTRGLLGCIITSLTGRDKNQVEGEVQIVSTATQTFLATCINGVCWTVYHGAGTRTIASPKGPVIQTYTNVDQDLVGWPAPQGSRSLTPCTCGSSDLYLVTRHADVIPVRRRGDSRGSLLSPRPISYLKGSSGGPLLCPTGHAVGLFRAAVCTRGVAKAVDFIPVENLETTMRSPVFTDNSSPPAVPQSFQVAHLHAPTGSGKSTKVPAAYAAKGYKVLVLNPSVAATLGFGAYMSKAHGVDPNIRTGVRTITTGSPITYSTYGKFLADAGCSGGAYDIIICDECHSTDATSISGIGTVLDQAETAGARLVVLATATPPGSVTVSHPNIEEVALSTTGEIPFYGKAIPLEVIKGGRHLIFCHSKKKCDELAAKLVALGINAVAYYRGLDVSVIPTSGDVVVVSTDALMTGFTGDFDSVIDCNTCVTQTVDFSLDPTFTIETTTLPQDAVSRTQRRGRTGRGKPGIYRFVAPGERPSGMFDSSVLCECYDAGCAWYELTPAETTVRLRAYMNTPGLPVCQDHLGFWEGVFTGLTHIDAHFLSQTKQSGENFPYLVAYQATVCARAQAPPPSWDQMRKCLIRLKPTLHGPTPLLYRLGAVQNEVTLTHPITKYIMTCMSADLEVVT
Sequence of NS3/NS4 complexes (P27958 1658-1711): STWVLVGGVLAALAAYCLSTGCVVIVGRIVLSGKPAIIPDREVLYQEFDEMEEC

For another experiment, the system named is hepatitis C replicon. Put plainly: hepatitis C replicon EC50. The experiment is classed as cell-based. The following applies: Hepatitis C virus; Table 3; hepatitis C replicon; read-out: EC50. An excerpt:
NS3-NS4 inhibition activity can be determined using known assay methods.
For orientation: In antiviral work, replicon cells carry a viral genome segment that copies itself.

For orientation: IC50 means the midpoint of a concentration-inhibition curve. A word on the EC50: it is the concentration giving half of the maximal effect.

`CC1(S(=O)(=O)NC(=O)[C@@]23C[C@H]2/C=C\CCCCC[C@H](Nc2cccc(NS(C)(=O)=O)c2)C(=O)N2C[C@H](OC(=O)N4Cc5cccc(F)c5C4)C[C@H]2C(=O)N3)CC1` [Compound 1122]: the IC50 on NS3/NS4 complexes (Table 3, read-out: IC50) was < 0.01 µM. Also, the concentration for a half-maximal effect (EC50) in the experiment with hepatitis C replicon is 0.01 to 0.1 µM.

On to `CC1(S(=O)(=O)NC(=O)[C@@]23C[C@H]2/C=C\CCCCC[C@H](Nc2ccc(C(F)(F)F)c(F)c2)C(=O)N2C[C@H](OC(=O)N4Cc5cccc(F)c5C4)C[C@H]2C(=O)N3)CC1` [Compound 1123], for which the 50% inhibitory concentration (IC50) at NS3/NS4 complexes (Table 3, read-out: IC50) was < 0.01 µM. Moreover, in the experiment with hepatitis C replicon, the 50% effective concentration (EC50) is > 0.1 µM.

For the compound `CC1(S(=O)(=O)NC(=O)[C@@]23C[C@H]2/C=C\CCCCC[C@H](Nc2ccccc2F)C(=O)N2C[C@H](OC(=O)N4Cc5cccc(F)c5C4)C[C@H]2C(=O)N3)CC1` [Compound 1124], the half-maximal inhibitory concentration (IC50) at NS3/NS4 complexes (Table 3, read-out: IC50) was < 0.01 µM. Moreover, the concentration for a half-maximal effect (EC50) in the experiment on hepatitis C replicon lay in the range of 0.01 to 0.1 µM.

On to `CC(C)(C)c1cccc(N[C@H]2CCCCC/C=C\[C@@H]3C[C@@]3(C(=O)NS(=O)(=O)C3(C)CC3)NC(=O)[C@@H]3C[C@@H](OC(=O)N4Cc5cccc(F)c5C4)CN3C2=O)c1` [Compound 1126], for which the concentration for half-maximal inhibition (IC50) on NS3/NS4 complexes (Table 3, read-out: IC50) is < 0.01 µM. Further, the EC50 with hepatitis C replicon was < 0.01 µM.

Consider `CC1(S(=O)(=O)NC(=O)[C@@]23C[C@H]2/C=C\CCCCC[C@H](Nc2nc4ccccc4o2)C(=O)N2C[C@H](OC(=O)N4Cc5cccc(F)c5C4)C[C@H]2C(=O)N3)CC1` [Compound 1127], for which the half-inhibitory concentration (IC50) at NS3/NS4 complexes (Table 3, read-out: IC50) is < 0.01 µM. The 50% effective concentration (EC50) with hepatitis C replicon is 0.01 to 0.1 µM.

For `O=C1N[C@]2(C(=O)NS(=O)(=O)C3CC3)C[C@H]2/C=C\CCCCC[C@H](Nc2cc(F)cc(C(F)(F)F)c2)C(=O)N2C[C@H](OC(=O)N3Cc4cccc(F)c4C3)C[C@@H]12` [Compound 1128], the half-maximal inhibitory concentration (IC50) at NS3/NS4 complexes (Table 3, read-out: IC50) was < 0.01 µM. Further, the EC50 in the experiment with hepatitis C replicon was < 0.01 µM.

With `CC(C)Cn1c(O[C@@H]2C[C@H]3C(=O)N[C@]4(C(=O)NS(=O)(=O)N(C)C)C[C@H]4/C=C\CCCCC[C@H](NC(=O)OC(C)(C)C)C(=O)N3C2)nc2ccccc21` [Compound 1129], the 50% inhibitory concentration (IC50) on NS3/NS4 complexes (Table 3, read-out: IC50) was < 0.01 µM. For the same compound, the EC50 with hepatitis C replicon is < 0.01 µM.

On to `CN(C)S(=O)(=O)NC(=O)[C@@]12C[C@H]1/C=C\CCCCC[C@H](NC(=O)OC(C)(C)C)C(=O)N1C[C@H](Oc3nc4ccccc4n3C)C[C@H]1C(=O)N2` [Compound 1130], for which the IC50 on NS3/NS4 complexes (Table 3, read-out: IC50) is < 0.01 µM. For the same compound, in the experiment on hepatitis C replicon, the EC50 is < 0.01 µM.

Consider `CC(C)n1c(O[C@@H]2C[C@H]3C(=O)N[C@]4(C(=O)NS(=O)(=O)N(C)C)C[C@H]4/C=C\CCCCC[C@H](NC(=O)OC(C)(C)C)C(=O)N3C2)nc2ccccc21` [Compound 1131], for which, on NS3/NS4 complexes (Table 3, read-out: IC50), the half-maximal inhibitory concentration (IC50) is < 0.01 µM. The concentration for a half-maximal effect (EC50) in the experiment on hepatitis C replicon is < 0.01 µM.

With `CCn1c(O[C@@H]2C[C@H]3C(=O)N[C@]4(C(=O)NS(=O)(=O)N(C)C)C[C@H]4/C=C\CCCCC[C@H](NC(=O)OC(C)(C)C)C(=O)N3C2)nc2ccccc21` [Compound 1132], the IC50 at NS3/NS4 complexes (Table 3, read-out: IC50) is < 0.01 µM. Also, the EC50 in the experiment on hepatitis C replicon was < 0.01 µM.

Regarding `CC(C)n1c(O[C@@H]2C[C@H]3C(=O)N[C@]4(C(=O)NS(=O)(=O)N(C)C)C[C@H]4/C=C\CCCCC[C@H](NC(=O)OC(C)(C)C)C(=O)N3C2)nc2cc(F)ccc21` [Compound 1133], the 50% inhibitory concentration (IC50) on NS3/NS4 complexes (Table 3, read-out: IC50) is < 0.01 µM. The concentration for a half-maximal effect (EC50) in the experiment with hepatitis C replicon was < 0.01 µM.

In the case of `CC(C)n1c(O[C@@H]2C[C@H]3C(=O)N[C@]4(C(=O)NS(=O)(=O)N(C)C)C[C@H]4/C=C\CCCCC[C@H](NC(=O)OC(C)(C)C)C(=O)N3C2)nc2cccc(F)c21` [Compound 1134], the half-inhibitory concentration (IC50) on NS3/NS4 complexes (Table 3, read-out: IC50) is < 0.01 µM. Also, in the experiment with hepatitis C replicon, the EC50 was < 0.01 µM.

In the case of `CC(C)n1c(O[C@@H]2C[C@H]3C(=O)N[C@]4(C(=O)NS(=O)(=O)N(C)C)C[C@H]4/C=C\CCCCC[C@H](NC(=O)OC(C)(C)C)C(=O)N3C2)nc2c(F)cccc21` [Compound 1135], the IC50 at NS3/NS4 complexes (Table 3, read-out: IC50) was < 0.01 µM. In addition, the EC50 in the experiment with hepatitis C replicon is < 0.01 µM.

For the compound `CC(C)n1c(O[C@@H]2C[C@H]3C(=O)N[C@]4(C(=O)NS(=O)(=O)N(C)C)C[C@H]4/C=C\CCCCC[C@H](NC(=O)OC(C)(C)C)C(=O)N3C2)nc2ccc(F)cc21` [Compound 1136], at NS3/NS4 complexes (Table 3, read-out: IC50), the concentration for half-maximal inhibition (IC50) is < 0.01 µM. In the experiment on hepatitis C replicon, the half-maximal effective concentration (EC50) is < 0.01 µM.

Consider `Cc1ccc2c(c1)nc(O[C@@H]1C[C@H]3C(=O)N[C@]4(C(=O)NS(=O)(=O)N(C)C)C[C@H]4/C=C\CCCCC[C@H](NC(=O)OC(C)(C)C)C(=O)N3C1)n2C(C)C` [Compound 1137], for which the half-inhibitory concentration (IC50) at NS3/NS4 complexes (Table 3, read-out: IC50) is < 0.01 µM. Also, in the experiment on hepatitis C replicon, the 50% effective concentration (EC50) was < 0.01 µM.

Regarding `Cc1cccc2nc(O[C@@H]3C[C@H]4C(=O)N[C@]5(C(=O)NS(=O)(=O)N(C)C)C[C@H]5/C=C\CCCCC[C@H](NC(=O)OC(C)(C)C)C(=O)N4C3)n(C(C)C)c12` [Compound 1138], the half-inhibitory concentration (IC50) at NS3/NS4 complexes (Table 3, read-out: IC50) was < 0.01 µM. Besides, the half-maximal effective concentration (EC50) in the experiment on hepatitis C replicon was < 0.01 µM.

`Cc1ccc2nc(O[C@@H]3C[C@H]4C(=O)N[C@]5(C(=O)NS(=O)(=O)N(C)C)C[C@H]5/C=C\CCCCC[C@H](NC(=O)OC(C)(C)C)C(=O)N4C3)n(C(C)C)c2c1` [Compound 1139]: the IC50 on NS3/NS4 complexes (Table 3, read-out: IC50) was < 0.01 µM. Besides, the concentration for a half-maximal effect (EC50) in the experiment on hepatitis C replicon was < 0.01 µM.

For `Cc1cccc2c1nc(O[C@@H]1C[C@H]3C(=O)N[C@]4(C(=O)NS(=O)(=O)N(C)C)C[C@H]4/C=C\CCCCC[C@H](NC(=O)OC(C)(C)C)C(=O)N3C1)n2C(C)C` [Compound 1140], the IC50 on NS3/NS4 complexes (Table 3, read-out: IC50) is < 0.01 µM. Besides, in the experiment on hepatitis C replicon, the EC50 is < 0.01 µM.

On to `CN(C)S(=O)(=O)NC(=O)[C@@]12C[C@H]1/C=C\CCCCC[C@H](NC(=O)OC(C)(C)C)C(=O)N1C[C@H](Oc3nc4ccccc4n3C3CCCC3)C[C@H]1C(=O)N2` [Compound 1141], for which the concentration for half-maximal inhibition (IC50) on NS3/NS4 complexes (Table 3, read-out: IC50) was < 0.01 µM. Also, in the experiment on hepatitis C replicon, the EC50 is < 0.01 µM.

Turning to `CC(C)n1c(O[C@@H]2C[C@H]3C(=O)N[C@]4(C(=O)NS(=O)(=O)C5CC5)C[C@H]4/C=C\CCCCC[C@H](NC(=O)OC(C)(C)C)C(=O)N3C2)nc2ccccc21` [Compound 1142], on NS3/NS4 complexes (Table 3, read-out: IC50), the half-inhibitory concentration (IC50) is < 0.01 µM. Besides, the EC50 with hepatitis C replicon is < 0.01 µM.

Regarding `CN(C)S(=O)(=O)NC(=O)[C@@]12C[C@H]1/C=C\CCCCC[C@H](NC(=O)OC(C)(C)C)C(=O)N1C[C@H](Oc3nc4ccccc4n3COCC[Si](C)(C)C)C[C@H]1C(=O)N2` [Compound 1143], at NS3/NS4 complexes (IC50, Table 3), the 50% inhibitory concentration (IC50) is < 0.01 µM. For the same compound, the concentration for a half-maximal effect (EC50) in the experiment with hepatitis C replicon was > 0.1 µM.

On to `CN(C)S(=O)(=O)NC(=O)[C@@]12C[C@H]1/C=C\CCCCC[C@H](NC(=O)OC(C)(C)C)C(=O)N1C[C@H](Oc3nc4ccccc4[nH]3)C[C@H]1C(=O)N2` [Compound 1144], for which the IC50 on NS3/NS4 complexes (Table 3, read-out: IC50) is < 0.01 µM. In addition, the EC50 with hepatitis C replicon was > 0.1 µM.
